# Experimental data reported in ChEMBL document CHEMBL1275247, “Pharmacokinetics and safety of CXA-101, a new antipseudomonal cephalosporin, in healthy adult male and female subjects receiving single- and multiple-dose intravenous infusions” (Antimicrob Agents Chemother, 2010).
# Assays:
# Homo sapiens [1] = test: Toxicity in healthy human assessed as occurrence of hypoaesthesia at 500 mg, iv administered as 1 hr infusion every 8 hrs for 10 days; type: organism-based; conditions: in vivo
# [2] = Renal clearance in healthy human at 500 mg, iv administered as 1 hr infusion every 8 hrs for 10 days measured on day 1; type: ADME, organism-based, Kidney; conditions: in vivo, read-out: CL_renal
# [3] = Drug recovery in urine of healthy human at 1500 mg, iv administered as 1 hr infusion every 12 hrs for 10 days measured on day 10; type: ADME, organism-based; conditions: read-out: Activity
# Homo sapiens [4] = test: Toxicity in healthy human assessed as occurrence of flushing at 1000 mg, iv administered as 1 hr infusion every 8 hrs for 10 days; type: organism-based; conditions: in vivo
# [5] = AUC (0 to infinity) in healthy human at 1000 mg, iv administered as 1 hr infusion every 8 hrs for 10 days measured on day 10; type: ADME, organism-based; parameters: dose 1000 mg, time infinity, route intravenous; conditions: plasma
# [6] = Volume of distribution at steady state in healthy human at 2000 mg, iv administered as single dose as 1 hr iv infusion; type: ADME, organism-based; conditions: in vivo
# [7] = Volume of distribution at steady state in healthy human at 500 mg, iv administered as 1 hr infusion every 8 hrs for 10 days measured on day 10; type: ADME, organism-based; conditions: in vivo
# [8] = Renal clearance in healthy human at 250 mg, iv administered as single dose as 1 hr iv infusion; type: ADME, organism-based, Kidney; conditions: in vivo, read-out: CL_renal
# [9] = AUC (0 to infinity) in healthy human at 500 mg, iv administered as single dose as 1 hr iv infusion; type: ADME, organism-based; parameters: dose 500 mg, time infinity, route intravenous; conditions: plasma
# [10] = Half-life in plasma of healthy human 1000 mg, iv administered as 1 hr infusion every 8 hrs for 10 days measured on day 10; type: ADME, organism-based
# [11] = Cmax in healthy human at 2000 mg, iv administered as single dose as 1 hr iv infusion; type: ADME, organism-based; parameters: dose 2000 mg, route intravenous; conditions: in vivo
# [12] = Cmax in healthy human at 250 mg, iv administered as single dose as 1 hr iv infusion; type: ADME, organism-based; parameters: dose 250 mg, route intravenous; conditions: in vivo
# [13] = Volume of distribution at steady state in healthy human at 1500 mg, iv administered as 1 hr infusion every 12 hrs for 10 days measured on day 1; type: ADME, organism-based; conditions: in vivo
# [14] = Half-life in plasma of healthy human 1500 mg administered as single ascending dose, iv for 1 hr infusion; type: ADME, organism-based
# [15] = Tmax in healthy human at 500 mg, iv administered as 1 hr infusion every 8 hrs for 10 days measured on day 1; type: ADME, organism-based; conditions: in vivo
smiles,measurement,setting,value
Cn1c(N)c(NC(=O)NCCN)c[n+]1CC1=C(C(=O)O)N2C(=O)[C@@H](NC(=O)/C(=N\OC(C)(C)C(=O)[O-])c3nsc(N)n3)[C@H]2SC1 [CEFTOLOZANE],Activity,Homo sapiens [1],Non-toxic
same,CL renal,[2],78.4 mL/min
same,dose excreted at 10 day,[3],105%
same,Activity,Homo sapiens [4],Non-toxic
same,AUC(0-inf),[5],143 µg·h/mL
same,Vd,[6],14.8 L
same,Vd,[7],14 L
same,CL renal at 1 h,[8],101 mL/min
same,AUC(0-inf),[9],84.1 µg·h/mL
same,half-life,[10],2.69 h
same,Cmax,[11],128 µg/mL
same,Cmax,[12],16.5 µg/mL
same,Vd,[13],18.1 L
same,half-life,[14],2.62 h
same,Tmax,[15],1.03 h
